According to US20240024333A1, “USE OF SMALL MOLECULE FAK ACTIVATORS TO PROMOTE MUCOSAL HEALING” (Regents of the University of Minnesota, priority 2020, published 2024):
Entries after “also recorded” stand apart in the source; their conditions may differ.

Experiments:
FAK = biological target: T1, FAK (Homo sapiens, UniProt Q05397); assay: Cell-based FAK-Tyr-397 activation (Western blot, Caco-2 cells)
T1 construct: endogenous in cells; host or cells: Caco-2 (human, ATCC)
Method: Human Caco-2 cells were from ATCC (Manassas, VA) and maintained in Dulbecco's Modified Essential Eagle's Medium supplemented with 10% FBS as described by us previously 25. 80-90% confluent Caco-2 cells were seeded into cell culture plates pacificated with 1% heat inactivated bovine serum albumin to prevent adhesion and avoid adhesion-associated background FAK activation. Suspended cells were then treated with DMSO (0.1%) or small molecules for 1 hour before harvesting for Western blotting.
Cells were lysed and protein concentration was determined via bicinchoninic acid protein assay (Thermo Fisher, Rockford, IL). […] Images were taken using a LICOR-Odyssey-Fc imaging system (LI-COR Biosciences, Lincoln, NE).

Caco-2 cells = assay: Caco-2 monolayer wound closure assay; type: cell-based, human
Method: Caco-2 cells were seeded at 75-80% confluence into collagen I coated 6-well plates. When the cells reached 100% confluence, wounds were made in the monolayers with non-barrier autoclaved tips. Wound images were captured using an inverted light microscope (OLYMPUS CK2, Center Valley, PA) at 0 hours and 24 hours after treatment with DMSO or small molecules. Wound areas were measured with Image J software.

Pyk2 = biological target: T2, Pyk2 (Homo sapiens, UniProt Q14289); assay: Pyk2 activation in intact cells; type: cell-based
T2 construct: endogenous in cells; host or cells: Caco-2

Src = biological target: T3, Src (Homo sapiens, UniProt P12931); assay: Src activation in intact cells; type: cell-based
T3 construct: endogenous in cells; host or cells: Caco-2

[1] = test system: ischemic ileal mucosal ulcers; assay: Ischemic ileal ulcer model (acetic-acid-soaked discs on serosa); type: in vivo, mice
[2] = test system: intestinal mucosal ulcers; assay: Intestinal mucosal healing in vivo (model not given); parameters: species or system mice; settings: mouse
[3] = test system: IMR-90 human pulmonary fibroblasts; assay: Cytotoxicity in IMR-90 cells; type: cell-based; settings: IMR90
[4] = test system: SH-SY5Y human neuronal cells; assay: Cytotoxicity in SH-SY5Y cells; type: cell-based
[5] = B/P ratio and blood-brain barrier crossing; type: in vivo
Human plasma stability = type: in vitro ADME; settings: at 6 h
Plasma protein binding = type: in vitro ADME; settings: plasma
Description: (§1) The most successful molecules underwent in vitro ADMET assays, including mouse and human metabolic stability, solubility (pH 7.4), Caco-2 (permeability), and log D determination. We will evaluate lead candidates for drug-like properties, including aqueous solubility (PBS buffer, pH 7.4), pKa, lipophilicity, chemical stability at pH 1 (the pH of the stomach), pH 6 (small intestine), A-B partitioning (octanol-PBS buffer, pH 7.4), liver microsomal stability as an indication of potential first-pass metabolism (microsomes from mouse and humans), substrate potential for isoforms of human P450 such as CYP3A4, cell permeability (Caco-2 cells), hERG toxicity (cell lines), mutagenesis, and plasma protein binding (mouse & human). […]. Computed physical properties that correlate with good oral bioavailability and cell permeability will be calculated for new compounds throughout the optimization process and will […] also influence lead compound selection as will ligand efficiency (LE) and lipophilic efficiency (LLE). Molecules will be administered by gavage to mice at 30 mg/kg, and we will measure plasma levels at 2 and 4 hours. The most successful molecules in this regard (with the highest levels at 2 and 4 hours) may be further modified by developing combinations of modifications at different parts of the molecule.

CYP 2C9 = CYP 2C9 (Homo sapiens, UniProt P11712); assay: CYP 2C9 inhibition; type: in vitro ADME
Description: as §1

CYP 2C19 = CYP 2C19 (Homo sapiens, UniProt P33261); assay: CYP 2C19 inhibition; type: in vitro ADME
Description: as §1

CYP 2D6 = CYP 2D6 (Homo sapiens, UniProt P10635); assay: CYP 2D6 inhibition; type: in vitro ADME
Description: as §1

hERG = hERG (Homo sapiens, UniProt Q12809); assay: hERG toxicity; type: cell-based
Description: as §1

Mini-Ames = assay: Mini-Ames
Description: as §1

log D determination = type: physicochemical; settings: pH 7.4
Description: as §1

Solubility = type: physicochemical
Description: as §1

mice = settings: mouse, in vivo
[6] = mouse, in vivo, po
in vivo = settings: mouse, T1/2
FAK 35 kD kinase domain = FAK 35 kD kinase domain (Homo sapiens, UniProt Q05397); assay: In vitro kinase assay with purified FAK kinase domain; settings: FIG. 5
Chain of FAK 35 kD kinase domain (Q05397 422-680 limits assumed): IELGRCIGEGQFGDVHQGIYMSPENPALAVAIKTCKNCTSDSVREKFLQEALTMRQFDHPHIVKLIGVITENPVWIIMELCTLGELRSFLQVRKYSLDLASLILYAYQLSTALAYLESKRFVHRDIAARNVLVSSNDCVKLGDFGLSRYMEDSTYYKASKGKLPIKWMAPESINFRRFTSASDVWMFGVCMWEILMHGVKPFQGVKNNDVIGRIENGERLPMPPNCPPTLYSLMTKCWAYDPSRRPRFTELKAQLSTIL

T1 sequence (Q05397 whole entry): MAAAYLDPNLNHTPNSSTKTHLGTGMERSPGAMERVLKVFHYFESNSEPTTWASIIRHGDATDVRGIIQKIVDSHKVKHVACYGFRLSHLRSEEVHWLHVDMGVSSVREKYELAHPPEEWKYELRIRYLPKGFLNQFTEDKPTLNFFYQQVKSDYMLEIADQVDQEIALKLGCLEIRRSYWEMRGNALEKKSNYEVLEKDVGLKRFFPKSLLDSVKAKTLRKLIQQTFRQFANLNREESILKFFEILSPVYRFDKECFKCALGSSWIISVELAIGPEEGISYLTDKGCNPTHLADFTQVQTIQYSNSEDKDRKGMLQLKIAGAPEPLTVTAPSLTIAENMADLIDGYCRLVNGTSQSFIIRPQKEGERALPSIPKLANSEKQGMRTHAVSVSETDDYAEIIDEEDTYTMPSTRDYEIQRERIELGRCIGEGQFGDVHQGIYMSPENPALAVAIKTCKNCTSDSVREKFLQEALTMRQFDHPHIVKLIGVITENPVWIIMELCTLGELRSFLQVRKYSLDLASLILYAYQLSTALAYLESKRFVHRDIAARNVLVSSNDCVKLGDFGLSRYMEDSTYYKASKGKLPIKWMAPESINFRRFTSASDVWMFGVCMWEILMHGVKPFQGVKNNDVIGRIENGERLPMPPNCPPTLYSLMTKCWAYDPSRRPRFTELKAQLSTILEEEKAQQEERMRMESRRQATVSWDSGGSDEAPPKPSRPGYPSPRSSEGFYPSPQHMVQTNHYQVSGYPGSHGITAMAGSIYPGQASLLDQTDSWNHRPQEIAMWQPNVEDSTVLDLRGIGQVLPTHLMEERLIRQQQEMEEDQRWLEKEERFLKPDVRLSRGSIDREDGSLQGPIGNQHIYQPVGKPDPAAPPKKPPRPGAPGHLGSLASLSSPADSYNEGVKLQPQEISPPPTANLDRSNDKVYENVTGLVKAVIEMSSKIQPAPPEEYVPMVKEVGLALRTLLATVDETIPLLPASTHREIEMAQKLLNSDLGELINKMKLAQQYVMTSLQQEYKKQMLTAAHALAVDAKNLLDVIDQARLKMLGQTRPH
Chain of hERG (Q12809 whole entry): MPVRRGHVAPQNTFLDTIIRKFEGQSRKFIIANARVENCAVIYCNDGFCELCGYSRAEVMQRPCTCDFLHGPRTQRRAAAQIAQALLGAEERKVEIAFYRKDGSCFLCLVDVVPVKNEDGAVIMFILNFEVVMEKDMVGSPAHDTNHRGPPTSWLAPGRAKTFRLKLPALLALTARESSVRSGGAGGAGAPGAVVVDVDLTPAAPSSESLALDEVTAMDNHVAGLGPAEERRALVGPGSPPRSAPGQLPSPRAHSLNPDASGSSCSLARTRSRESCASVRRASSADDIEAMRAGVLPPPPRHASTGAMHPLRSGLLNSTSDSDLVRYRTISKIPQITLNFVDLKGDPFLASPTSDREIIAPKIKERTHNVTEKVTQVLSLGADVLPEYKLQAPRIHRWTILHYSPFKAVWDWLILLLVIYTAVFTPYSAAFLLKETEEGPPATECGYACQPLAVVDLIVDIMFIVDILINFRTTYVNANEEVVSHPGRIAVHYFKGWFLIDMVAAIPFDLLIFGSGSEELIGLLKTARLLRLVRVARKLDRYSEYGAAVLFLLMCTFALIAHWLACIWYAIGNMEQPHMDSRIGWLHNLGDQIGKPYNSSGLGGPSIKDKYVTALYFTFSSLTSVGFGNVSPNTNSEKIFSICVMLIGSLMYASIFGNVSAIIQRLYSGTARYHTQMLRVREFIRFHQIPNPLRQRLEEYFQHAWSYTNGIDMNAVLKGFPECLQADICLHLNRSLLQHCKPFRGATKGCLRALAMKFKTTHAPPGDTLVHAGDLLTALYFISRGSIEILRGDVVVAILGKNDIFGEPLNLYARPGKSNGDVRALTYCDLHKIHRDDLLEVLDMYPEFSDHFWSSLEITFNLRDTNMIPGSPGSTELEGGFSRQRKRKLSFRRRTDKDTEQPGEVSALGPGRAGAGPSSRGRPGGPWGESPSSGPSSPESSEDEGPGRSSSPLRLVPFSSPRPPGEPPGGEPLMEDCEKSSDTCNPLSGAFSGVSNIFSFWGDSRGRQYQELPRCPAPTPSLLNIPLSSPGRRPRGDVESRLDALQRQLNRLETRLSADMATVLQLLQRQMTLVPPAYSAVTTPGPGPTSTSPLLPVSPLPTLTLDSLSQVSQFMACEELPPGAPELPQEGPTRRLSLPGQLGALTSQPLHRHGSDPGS
T2 sequence (Q14289 whole entry): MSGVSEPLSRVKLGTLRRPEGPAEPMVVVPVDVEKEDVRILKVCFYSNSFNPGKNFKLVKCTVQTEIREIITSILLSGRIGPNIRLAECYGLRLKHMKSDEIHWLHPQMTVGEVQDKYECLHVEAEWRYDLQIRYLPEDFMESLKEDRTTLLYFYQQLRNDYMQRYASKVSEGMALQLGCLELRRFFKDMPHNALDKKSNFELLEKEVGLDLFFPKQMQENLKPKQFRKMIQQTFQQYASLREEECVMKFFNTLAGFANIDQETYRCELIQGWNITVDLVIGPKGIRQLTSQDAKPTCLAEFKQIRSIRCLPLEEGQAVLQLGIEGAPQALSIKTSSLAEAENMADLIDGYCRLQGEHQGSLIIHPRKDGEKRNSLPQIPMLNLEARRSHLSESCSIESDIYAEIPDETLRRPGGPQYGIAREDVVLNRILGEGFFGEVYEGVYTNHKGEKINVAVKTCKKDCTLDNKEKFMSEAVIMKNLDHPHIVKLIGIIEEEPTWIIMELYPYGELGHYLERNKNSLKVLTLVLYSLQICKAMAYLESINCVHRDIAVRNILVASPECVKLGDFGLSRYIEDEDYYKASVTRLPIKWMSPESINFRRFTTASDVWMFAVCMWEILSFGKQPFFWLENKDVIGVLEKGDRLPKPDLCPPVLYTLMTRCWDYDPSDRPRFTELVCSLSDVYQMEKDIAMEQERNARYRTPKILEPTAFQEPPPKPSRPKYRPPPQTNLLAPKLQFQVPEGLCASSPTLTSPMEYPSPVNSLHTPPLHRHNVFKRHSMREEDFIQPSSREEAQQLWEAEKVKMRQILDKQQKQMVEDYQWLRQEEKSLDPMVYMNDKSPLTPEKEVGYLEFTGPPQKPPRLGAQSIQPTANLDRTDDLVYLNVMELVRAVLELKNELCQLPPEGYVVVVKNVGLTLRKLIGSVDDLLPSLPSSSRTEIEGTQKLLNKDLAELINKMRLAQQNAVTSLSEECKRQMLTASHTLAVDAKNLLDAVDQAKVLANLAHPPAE
Chain of CYP 2C9 (P11712 whole entry): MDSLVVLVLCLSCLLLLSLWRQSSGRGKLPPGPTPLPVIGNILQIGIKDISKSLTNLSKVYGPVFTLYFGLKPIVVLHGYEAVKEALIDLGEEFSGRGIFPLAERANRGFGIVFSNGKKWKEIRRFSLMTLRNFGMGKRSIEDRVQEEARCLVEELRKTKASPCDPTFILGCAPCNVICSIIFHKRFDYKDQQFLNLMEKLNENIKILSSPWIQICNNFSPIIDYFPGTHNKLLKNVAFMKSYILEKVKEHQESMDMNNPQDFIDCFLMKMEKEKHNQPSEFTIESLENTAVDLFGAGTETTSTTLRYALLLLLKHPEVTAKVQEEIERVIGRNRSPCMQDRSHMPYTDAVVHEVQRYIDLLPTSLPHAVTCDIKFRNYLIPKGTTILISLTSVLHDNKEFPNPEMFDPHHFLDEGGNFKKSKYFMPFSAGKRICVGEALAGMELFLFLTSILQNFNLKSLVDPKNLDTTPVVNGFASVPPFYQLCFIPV
Chain of CYP 2D6 (P10635 whole entry): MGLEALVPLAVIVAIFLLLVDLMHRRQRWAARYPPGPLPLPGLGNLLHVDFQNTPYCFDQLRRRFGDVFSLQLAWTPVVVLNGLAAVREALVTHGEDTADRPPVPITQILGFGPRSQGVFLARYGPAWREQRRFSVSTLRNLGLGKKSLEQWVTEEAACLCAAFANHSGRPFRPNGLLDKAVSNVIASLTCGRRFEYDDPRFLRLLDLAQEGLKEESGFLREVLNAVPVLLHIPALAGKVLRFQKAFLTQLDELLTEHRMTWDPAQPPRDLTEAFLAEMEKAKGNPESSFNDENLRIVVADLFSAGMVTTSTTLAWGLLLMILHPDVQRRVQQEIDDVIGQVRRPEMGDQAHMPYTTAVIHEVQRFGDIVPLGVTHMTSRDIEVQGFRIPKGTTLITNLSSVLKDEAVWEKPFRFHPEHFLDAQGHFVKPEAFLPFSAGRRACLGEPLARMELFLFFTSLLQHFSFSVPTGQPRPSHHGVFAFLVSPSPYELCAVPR
T3 sequence (P12931 whole entry): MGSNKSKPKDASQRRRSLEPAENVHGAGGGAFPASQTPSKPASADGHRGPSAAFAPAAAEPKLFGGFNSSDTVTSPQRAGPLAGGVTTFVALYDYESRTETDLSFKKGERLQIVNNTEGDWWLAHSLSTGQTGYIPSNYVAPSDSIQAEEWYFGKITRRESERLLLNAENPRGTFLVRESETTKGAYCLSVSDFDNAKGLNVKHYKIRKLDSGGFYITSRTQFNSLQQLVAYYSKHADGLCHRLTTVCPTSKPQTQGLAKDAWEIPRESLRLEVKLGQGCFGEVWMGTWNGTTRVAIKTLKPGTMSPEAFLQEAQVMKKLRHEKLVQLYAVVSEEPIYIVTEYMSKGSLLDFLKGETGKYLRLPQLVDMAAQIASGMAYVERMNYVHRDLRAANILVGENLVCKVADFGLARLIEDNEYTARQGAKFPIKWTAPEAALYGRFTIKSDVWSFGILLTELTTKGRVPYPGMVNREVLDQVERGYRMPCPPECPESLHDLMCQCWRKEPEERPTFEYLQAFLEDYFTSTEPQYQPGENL

O=C(Nc1cc(C(F)(F)F)ccc1N1CCOCC1)N1CCCC1c1ccncc1 (centres unmarked) [Compound 24]
concentration level of FAK activation (in words) (FAK): considerably lower concentration than 45 | concentration as low as which FAK is activated (FAK; Caco-2 cells): 100 pM | EC50 (FAK; in vitro, assay not named in Table 4, read-out: FAK potency EC50): < 0.01 µM | FAK activation / FAK-Tyr-397 phosphorylation (in words) (FAK; vs. DMSO vehicle control): seemed to activate FAK | concentration as low as which in vitro wound closure is stimulated (Caco-2 cells): 100 pM | Selectivity against relative off-targets: no Pyk2 activation at multiple of FAK activation (Pyk2): activation at >1000 × × FAK activation | Selectivity against relative off-targets: no Src activation at multiple of FAK activation (Src): activation at >1000 × × FAK activation | ischemic ulcer healing (in words) ([1]; mice, 40: 30 mg/kg/day by osmotic minipump, 4 days, 30 mg/kg/day): accelerated; also recorded: can heal intestinal mucosal ulcers | Mouse therapeutic dose ([1]; × 4 days): <30 mg/kg/day | intestinal mucosal healing in vivo (in words) [2]: promoting small bowel mucosal wound healing | Cytotoxicity (LD50) [3]: >1 mM | Cytotoxicity (LD50) [4]: >1 mM | B/P ratio ([5]; 2 h): B/P ratio <0.15 | blood-brain barrier crossing (in words) ([5]; in vivo): cross the blood-brain barrier | Human plasma stability (Human plasma stability): 98.62% at 6 h | fraction unbound (Plasma protein binding): 0.0949 | IC50 (CYP 2C9): 4.5 µM | IC50 (CYP 2C19): 5.43 µM | IC50 (CYP 2D6): 10.1 µM | hERG (hERG): hERG = 2.958 μM | Mini-Ames (Mini-Ames): negative | log D7.4 (log D determination): log D7.4 = 3.12 | water solubility / need of DMSO (in words) (Solubility): required DMSO solubilization; also recorded: somewhat less insoluble | solubility (Solubility; PBS buffer, pH 7.4, aqueous buffer): 252 µM | neurotoxicity (in words) (mice): no neurotoxicity was detected | tolerability / gross toxicity in mice (in words) (mice): without obvious toxicity | oral / enteral absorption (in words) [6]: readily orally | half-life (in vivo): ~1.5 h | concentration of maximal effect in in vitro kinase assay (FAK 35 kD kinase domain): about 0.3 nM
